Data from publication PMC12146557 (iScience, 2025).

Assays:
[1] = target: T1, PfUbc13 (Plasmodium falciparum ubiquitin-conjugating enzyme 13) (Plasmodium falciparum, UniProt Q8I3J4); assay: LC-HRMS of tryptic peptides; type: biochemical
T1 sequence (Q8I3J4 1-152): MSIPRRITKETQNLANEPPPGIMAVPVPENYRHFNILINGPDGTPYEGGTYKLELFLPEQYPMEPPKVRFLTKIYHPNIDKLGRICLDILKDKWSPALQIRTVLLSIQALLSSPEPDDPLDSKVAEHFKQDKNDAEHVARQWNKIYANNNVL
T1 sequence (Q8I5F9 1-1140 partner): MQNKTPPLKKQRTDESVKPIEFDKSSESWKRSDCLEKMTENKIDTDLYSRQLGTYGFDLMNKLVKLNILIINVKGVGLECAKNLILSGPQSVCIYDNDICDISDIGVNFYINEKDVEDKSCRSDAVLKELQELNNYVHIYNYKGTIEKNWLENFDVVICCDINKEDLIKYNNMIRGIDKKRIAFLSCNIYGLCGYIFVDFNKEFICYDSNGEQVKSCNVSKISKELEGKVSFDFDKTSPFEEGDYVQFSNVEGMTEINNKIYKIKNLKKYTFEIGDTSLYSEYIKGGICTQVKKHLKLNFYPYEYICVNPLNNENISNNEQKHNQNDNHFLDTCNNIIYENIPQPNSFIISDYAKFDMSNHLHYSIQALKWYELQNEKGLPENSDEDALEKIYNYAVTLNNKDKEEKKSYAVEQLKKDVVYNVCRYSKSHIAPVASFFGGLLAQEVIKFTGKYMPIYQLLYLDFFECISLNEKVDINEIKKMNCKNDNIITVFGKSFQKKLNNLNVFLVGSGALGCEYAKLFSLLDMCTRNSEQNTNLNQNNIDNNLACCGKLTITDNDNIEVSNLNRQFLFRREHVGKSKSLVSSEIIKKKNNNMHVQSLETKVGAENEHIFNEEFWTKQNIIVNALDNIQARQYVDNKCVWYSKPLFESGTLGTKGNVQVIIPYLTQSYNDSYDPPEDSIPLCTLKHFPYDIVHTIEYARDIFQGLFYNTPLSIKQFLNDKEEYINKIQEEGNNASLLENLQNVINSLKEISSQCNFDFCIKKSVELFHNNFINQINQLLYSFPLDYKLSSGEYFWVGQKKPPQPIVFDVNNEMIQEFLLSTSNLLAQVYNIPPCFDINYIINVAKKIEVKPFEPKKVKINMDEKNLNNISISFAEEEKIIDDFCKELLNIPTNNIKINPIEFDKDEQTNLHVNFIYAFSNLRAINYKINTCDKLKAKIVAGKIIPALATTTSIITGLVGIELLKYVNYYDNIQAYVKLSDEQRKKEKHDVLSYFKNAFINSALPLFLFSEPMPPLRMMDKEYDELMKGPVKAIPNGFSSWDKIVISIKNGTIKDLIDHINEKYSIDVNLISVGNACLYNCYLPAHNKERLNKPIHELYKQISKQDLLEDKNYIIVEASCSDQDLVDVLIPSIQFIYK

HsUbc13 (human Ubc13) = target: T2, HsUbc13 (human Ubc13) (Homo sapiens, UniProt P61088); assay: LC-HRMS of tryptic peptides; type: biochemical
T2 sequence (P61088 1-152): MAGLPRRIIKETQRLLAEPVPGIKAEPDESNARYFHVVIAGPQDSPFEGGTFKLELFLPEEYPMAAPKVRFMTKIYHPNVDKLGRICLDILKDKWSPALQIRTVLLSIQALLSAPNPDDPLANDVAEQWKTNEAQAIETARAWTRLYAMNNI

Cc1ccc(S(=O)(=O)c2ccc([N+](=O)[O-])o2)cc1 [NSC697923]
Ki [1]: 360 ± 110 nM | Ki (HsUbc13 (human Ubc13)): 280 ± 70 nM
